In brackets after ≈: the same amount, converted by molar mass.
Test: Toxicity in Artemia salina after 24 hrs
Assay type: organism-based
Details: in vivo, read-out: LD50

Compound | LC50 at 24 h
C=CCC/C=C/CCCC/C=C/[C@@H](O)[C@H](O)[C@@H]1O[C@@H]([C@H](O)[C@H](O)C(=C)CC[C@@H](O)[C@H]2C[C@@H](O)[C@@H](O)[C@H]([C@@H](O)[C@H](O)/C=C(C)/C=C/CC(O)CC(O)CNC(=O)C(O)C(O)C/C=C\C(O)C(O)/C(C)=C/CCCC(O)/C=C/CC(O)/C=C/CC(O)CN)O2)C[C@@H](O)[C@H]1O (some centres not stated) | 0.9 µg/mL (≈ 0.685 µM)
CC1=C(O)[C@@](O)([C@@H]2C[C@H]3OC(=O)[C@H](C)[C@@H]4CCC[C@@]5(CC[C@H](O5)[C@H](O)[C@@]5(C)CC(=O)[C@H](O5)[C@H]5C[C@]6(C)CC[C@](O5)(O6)[C@H]5CC[C@](C)(C[C@@H](C)/C=C(C)/C=C/[C@H]3O2)O5)O4)OCC1 | 2.5 µg/mL (≈ 2.92 µM)

Source: ChEMBL document CHEMBL2380199, “Ostreol A: a new cytotoxic compound isolated from the epiphytic dinoflagellate Ostreopsis cf. ovata from the coastal waters of Jeju Island, Korea” (Bioorg Med Chem Lett, 2013)
